# From US10350206B2, “Benzyl substituted indazoles as BUB1 inhibitors” (Bayer Pharma Aktiengesellschaft, priority 2014, dated 2019)
# pIC50: −log10 of the molar value.
# Key:
# [1] = target: T1, catalytic domain of human Bub1 (amino acids 704-1085) (Homo sapiens, UniProt O43683); experiment: Bub1 kinase assay (TR-FRET); format: biochemical; details: 10 μM ATP, 60 min reaction, pH 7.5; read-out: Biological Assay 1: Bub1 kinase assay median IC50
# T1 construct: catalytic domain of human Bub1 (amino acids 704-1085); His6 (N); made in house; host or cells: Hi5 insect cells
# Experimental: To this end, 100-fold concentrated compound solutions (in DMSO) were previously prepared by serial dilution (1:3.4) of 2 mM stocks in a clear low volume 384-well source microtiter plate (Greiner Bio-One, Frickenhausen, Germany), from which 50 nL of compounds were transferred into a black low volume test microtiter plate from the same supplier. […] The resulting mixture (5 μL final volume) was incubated at 22° during 60 min., and the reaction was stopped by the addition of 5 μL of an aqueous EDTA-solution (50 mM EDTA, in 100 mM HEPES pH 7.5 and 0.2% (w/v) bovine serum albumin) which also contained the TR-FRET detection reagents (0.2 μM streptavidin-XL665 [Cisbio Bioassays, Codolet, France] and 1 nM anti-phosho-Serine antibody [Merck Millipore, cat. #35-001] and 0.4 nM LANCE EU-W1024 labeled anti-mouse IgG antibody [Perkin-Elmer, product no. AD0077, alternatively a Terbium-cryptate-labeled anti-mouse IgG antibody from Cisbio Bioassays can be used]). The stopped reaction mixture was further incubated 1 h at 22° C. in order to allow the formation of complexes between peptides and detection reagents. Subsequently, the amount of product was evaluated by measurement of the resonance energy transfer from the Eu-chelate-antibody complex recognizing the Phosphoserine residue to the streptavidin-XL665 bound to the biotin moiety of the peptide. […] IC50 values were calculated by fitting the normalized inhibition data to a 4-parameter logistic equation (Minimum, Maximum, IC50, Hill; Y=Max+(Min−Max)/(1+(X/IC50)Hill)).
# [2] = test system: HeLa human cervical tumor cells; experiment: Proliferation assay (HeLa cell line); format: cell-based; details: 96 h, 4 days incubation, crystal violet, read-out: Biological Assay 2: Proliferation assay (HeLa cell line) median IC50
# Experimental: Human tumour cells were originally obtained from the American Type Culture Collection (ATCC), the Deutsche Sammlung von Mikroorganismen und Zellkulturen (DSMZ, German Collection of Microorganisms and Cell Cultures), or Epo GmbH Berlin. Cultivated HeLa human cervical tumor cells (DSMZ ACC-57) were plated at a density of 3000 cells/well in a 96-well multititer plate in 200 μL of growth medium supplemented 10% fetal calf serum. After 24 hours, the cells of one plate (zero-point plate) were stained with crystal violet (see below), while the medium of the other plates was supplemented with the test substances in various concentrations (0 μM, as well as in the range of 0.001-10 μM; the final concentration of the solvent dimethyl sulfoxide was adjusted to 0.1%) using a Hewlett-Packard HP D300 Digital Dispenser. The cells were incubated for 4 days in the presence of test substances. […] After three washing cycles of the fixed cells with water, the plates were dried at room temperature. The cells were stained by adding 100 μL/measuring point of a 0.1% crystal violet solution (pH 3.0). After three washing cycles of the stained cells with water, the plates were dried at room temperature. The dye was dissolved by adding 100 μL/measuring point of a 10% acetic acid solution. […] The change of cell number, in percent, was calculated by normalization of the measured values to the absorption values of the zero-point plate (=0%) and the absorption of the untreated (0 μm) cells (=100%). The IC50 values were determined by means of a 4 parameter fit.
# [3] = test system: HeLa human cervical tumor cells; experiment: Proliferation Assay (HeLa+Paclitaxel); format: cell-based; details: 3 nM paclitaxel, test substance 92 hours; read-out: Biological Assay 3: Proliferation Assay (HeLa + Paclitaxel) IC50
# Experimental: Proliferation Assay (HeLa+Paclitaxel):
# Cultivated HeLa human cervical tumor cells (DSMZ ACC-57) were plated at a density of 3000 cells/well in a 96-well multititer plate in 200 μL of growth medium supplemented 10% fetal calf serum. After 24 hours, the cells of one plate (zero-point plate) were stained with crystal violet (see below). The medium of the other plates was supplemented with 3 nM of paclitaxel (Sigma-Aldrich) and the cells were incubated at 37° C. After 4 hours the test substances were added in various concentrations (0 μM, as well as in the range of 0.001-10 μM; the final concentration of the solvent dimethyl sulfoxide was adjusted to 0.1%) using a Hewlett-Packard HP D300 Digital Dispenser. The cells were incubated for another 92 hours at 37° C. in the presence of test substances. […] After three washing cycles of the fixed cells with water, the plates were dried at room temperature. The cells were stained by adding 100 μL/measuring point of a 0.1% crystal violet solution (pH 3.0). After three washing cycles of the stained cells with water, the plates were dried at room temperature. The dye was dissolved by adding 100 μL/measuring point of a 10% acetic acid solution. […] The change of cell number, in percent, was calculated by normalization of the measured values to the absorption values of the zero-point plate (=0%) and the 5 absorption of the untreated (0 μm) cells (=100%). The IC50 values were determined by means of a 4 parameter fit.
# [4] = test system: Bub1 kinase (histone 2A phosphorylation); experiment: H2A Formation-Assay (cell-based mechanistic assay, co-treatment with Nocodazole); details: 16 h, Nocodazole 1 μg/ml together with test compound for 16 h; read-out: Biological Assay 4.1: H2A Formation IC50
# Experimental: Biological Assay 4.1: Formation-Assay
# Cell-Based Mechanistic Assay: Changes of Phosphorylation Status of Histone 2A by Inhibition of Kinase Activity of Bub1
# This assay determines the suppression of histone 2A phosphorylation by a Bub1 kinase inhibitor during co-treatment with Nocodazole. 25000 cells (cells were ordered from ATCC) were seeded in 96 well plate for 5 h at 37° C. Cells were treated with Nocodazole (1 μg/ml) and varying concentrations (between 3 nM and 10 μM) of test compounds for 16h. Cells were fixed (20 min, Fixing solution R&D), washed three times with PBS and blocked with Odyssey blocking buffer before incubating with the primary antibody against phosphorylated H2A (5 μg/ml ABIN482721) overnight at […]. After washing, secondary IRDye-labeled antibody mix with cell stains was added for 1h and washed again with PBS. Plates were scanned with LiCor Odyssey Infrared Imager CLx at 800 nm for P-H2A and at 700 nm for cell stains Draq5/Sapphire. The quotient of 800 nm and 700 nm for Nocodazole only treated cells was set as 100% and the quotient of 800 nm and 700 nm of untreated cells was set as 0%. […] The IC50 values were determined by means of a 4 parameter fit.
# (§1) Histone H2A is an immediate intracellular substrate of Bub1 kinase. Determination of the phosphorylation status of Histone H2A provides a direct measure of the intracellular activity of Bub1 kinase.
# [5] = test system: Bub1 kinase (pre-induced phospho-histone 2A); experiment: H2A Abrogation-Assay (cell-based mechanistic assay, pre-treatment with Nocodazole); details: Nocodazole 1 μg/ml 16 h, then test compound 1 h; read-out: Biological Assay 4.2: H2A Abrogation IC50
# Experimental: Biological Assay 4.2: Abrogation-Assay
# Cell-Based Mechanistic Assay: Changes of Phosphorylation Status of Pre-Induced Phospho-Histone 2A by Inhibition of Kinase Activity of Bub1
# This assay measures the inhibition of histone 2A phosphorylation, which was induced by pre-treatment of the cells with Nocodazole, by a Bub1 kinase inhibitor. 25000 cells (cells were ordered from ATCC) were seeded in 96 well plate for 5 h at 37° C. Cells were treated with Nocodazole (1 μg/ml). After 16h varying concentrations (between 3 nM and 10 μM) of test compounds were added and the cells were incubated for another 1h. Cells were fixed (20 min, Fixing solution R&D), washed three times with PBS and blocked with Odyssey blocking buffer before incubating with the primary antibody against phosphorylated H2A (5 μg/ml ABIN482721) overnight at 2-8° C. After washing, secondary IRDye-labeled antibody mix with cell stains was added for 1h and washed again with PBS. Plates were scanned with LiCor Odyssey Infrared Imager CLx at 800 nm for P-H2A and at 700 nm for cell stains Draq5/Sapphire. The quotient of 800 nm and 700 nm for Nocodazole only treated cells was set as 100% and the quotient of 800 nm and 700 nm of untreated cells was set as 0%. […] The IC50 values were determined by means of a 4 parameter fit.
# as §1
# T1 sequence (O43683 704-1085): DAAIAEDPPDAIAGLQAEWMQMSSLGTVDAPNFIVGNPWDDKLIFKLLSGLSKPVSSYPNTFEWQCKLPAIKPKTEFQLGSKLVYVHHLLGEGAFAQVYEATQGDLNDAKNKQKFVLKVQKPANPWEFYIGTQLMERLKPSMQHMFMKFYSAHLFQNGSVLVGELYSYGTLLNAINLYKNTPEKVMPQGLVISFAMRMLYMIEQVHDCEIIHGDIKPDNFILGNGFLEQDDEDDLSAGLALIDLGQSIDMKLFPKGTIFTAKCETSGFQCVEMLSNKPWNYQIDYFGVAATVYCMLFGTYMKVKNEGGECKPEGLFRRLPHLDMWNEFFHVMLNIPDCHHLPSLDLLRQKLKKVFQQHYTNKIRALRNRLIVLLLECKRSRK
Structure (SMILES),pIC50 [1],pIC50 [2],pIC50 [3],pIC50 [4],pIC50 [5]
"COc1cnc(-c2nn(Cc3c(F)cc(OCCO)cc3F)c3ccccc23)nc1Nc1ccnc(C)c1OC [Example 2-1-18, 2-{3,5-difluoro-4-[(3-{5-methoxy-4-[(3-methoxy-2-methylpyridin-4-yl)amino]pyrimidin-2-yl}-1H-indazol-1-yl)methyl]phenoxy}ethanol]",7.85,5.85,7.29,7.46,8.68
"COc1cnc(-c2nn(Cc3c(F)cc(OCCCO)cc3F)c3ccccc23)nc1Nc1cc(C)ncc1C [Example 2-3-1, 3-{4-[(3-{4-[(2,5-dimethylpyridin-4-yl)amino]-5-methoxypyrimidin-2-yl}-1 H-indazol-1-yl)methyl]-3,5-difluorophenoxy}propan-1-ol]",7.82,< 5.00,7.14,7.42,9.14
"COc1cnc(-c2nn(Cc3c(F)cc(OCCCO)cc3F)c3ccccc23)nc1Nc1ccnc(C)n1 [Example 2-3-3, 3-{3,5-difluoro-4-[(3-{5-methoxy-4-[(2-methylpyrimidin-4-yl)amino]pyrimidin-2-yl}-1H-indazol-1-yl)methyl]phenoxy}propan-1-ol]",7.26,< 5.00,6.70,6.68,6.51
"COc1cnc(-c2nn(Cc3c(F)cc(OC[C@H](C)CO)cc3F)c3ccccc23)nc1Nc1ccnc(C)n1 [Example 2-3-4, (2R)-3-{3,5-difluoro-4-[(3-{5-methoxy-4-[(2-methylpyrimidin-4-yl)amino]pyrimidin-2-yl}-1H-indazol-1-yl)methyl]phenoxy}-2-methylpropan-1-ol]",7.37,< 5.00,6.82,8.62,8.72
"COc1cnc(-c2nn(Cc3c(F)cc(OC[C@H](C)CO)cc3F)c3ccccc23)nc1Nc1cc(C)ncc1C [Example 2-3-5, (2R)-3-{4-[(3-{4-[(2,5-dimethylpyridin-4-yl)amino]-5-methoxypyrimidin-2-yl}-1H-indazol-1-yl)methyl]-3,5-difluorophenoxy}-2-methylpropan-1-ol]",7.24,5.48,7.16,8.70,< 6.00
"COc1cnc(-c2nn(Cc3c(F)cc(OC[C@H](C)CO)cc3F)c3ccccc23)nc1Nc1ccnc(NC(C)=O)c1 [Example 2-3-6, N-[4-({2-[1-(2,6-difluoro-4-{[(2R)-3-hydroxy-2-methylpropyl]oxy}benzyl)-1H-indazol-3-yl]-5-methoxypyrimidin-4-yl}amino)pyridin-2-yl]acetamide]",7.72,< 5.00,6.92,7.28,9.57
"COc1cnccc1Nc1nc(-c2nn(Cc3c(F)cc(OC[C@H](C)CO)cc3F)c3ccccc23)ncc1OC [Example 2-3-7, (2R)-3-{3,5-difluoro-4-[(3-{5-methoxy-4-[(3-methoxypyridin-4-yl)amino]pyrimidin-2-yl}-1H-indazol-1-yl)methyl]phenoxy}-2-methylpropan-1-ol]",7.55,5.16,6.96,7.20,9.51
"COc1cnc(-c2nn(Cc3c(F)cc(OCCCO)cc3F)c3ccccc23)nc1Nc1ccnc(C)c1 [Example 2-3-8, 3-{3,5-difluoro-4-[(3-{5-methoxy-4-[(2-methylpyridin-4-yl)amino]pyrimidin-2-yl}-1H-indazol-1-yl)methyl]phenoxy}propan-1-ol]",7.77,5.59,6.80,< 6.00,< 6.00
"COc1cnc(-c2nn(Cc3c(F)cc(OCCO)cc3F)c3ccccc23)nc1Nc1ccncc1 [Example 6-1-1, 2-[3,5-difluoro-4-({3-[5-methoxy-4-(pyridin-4-ylamino)pyrimidin-2-yl]-1H-indazol-1-yl}methyl)phenoxy]ethanol, reference compound]",8.21,5.49,6.37,6.70,5.27
"CCOc1cc(F)c(Cn2nc(-c3ncc(OC)c(Nc4ccncc4)n3)c3ccccc32)c(F)c1 [Example 6-4-1, 2-[1-(4-ethoxy-2,6-difluorobenzyl)-1 H-indazol-3-yl]-5-methoxy-N-(pyridin-4-yl)pyrimidin-4-amine, reference compound]",7.28,5.62,6.18,7.13,6.04
